# According to patent publication US9113629B2, “4-amino-6-(4-substituted-phenyl)-picolinates and 6-amino-2-(4-substituted-phenyl)-pyrimidine-4-carboxylates and their use as herbicides” (DOW AGROSCIENCES LLC, priority 2013, dated 2015):
# Like-named read-outs stand apart in the source and are kept apart here.
# What was measured:
# [1] = test system: Key Grass and Sedge Weeds as well as Grass Crops; test: Post-emergent Test II herbicidal activity (Table 6); format: in vivo; conditions: post-emergence, 336 h; for pest or weed control at 70 g/ha: 70 g ai/ha; for pest or weed control at 140 g/ha: 140 g ai/ha
# Procedure, shortened: (§1)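 Visual injury ratings (0 = no injury, 100 = complete kill) were taken 14 d after treatment, relative to untreated plants. Seedlings at the first–second true leaf stage received overhead spray at 187 L/ha; the highest rate was serially diluted to ½×, ¼×, ⅛× and 1/16×.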
# [2] = test system: Key Broadleaf Weed and Crop Species; test: Post-emergent Test II herbicidal activity (Table 5); format: in vivo; conditions: post-emergence, 336 h, 14 days after application; for pest or weed control at 70 g/ha: application rate 70 g ai/ha; for pest or weed control at 140 g/ha: application rate 140 g ai/ha
# Procedure, shortened: as §1
# [3] = CYPES: yellow nutsedge (Cyperus esculentus), read-out: Visual Growth Reduction (%) 14 Days After Application, CYPES
# [4] = DIGSA: crabgrass (Digitaria sanguinalis), read-out: Visual Growth Reduction (%) 14 Days After Application, DIGSA
# [5] = ECHCG: barnyardgrass (Echinochloa crus-galli), read-out: Visual Growth Reduction (%) 14 Days After Application, ECHCG
# [6] = ORYSA: rice (Oryza sativa), crop, read-out: Visual Growth Reduction (%) 14 Days After Application, ORYSA
# [7] = SETFA: giant foxtail (Setaria faberi), read-out: Visual Growth Reduction (%) 14 Days After Application, SETFA
# [8] = SORVU: grain sorghum (Sorghum vulgare), read-out: Visual Growth Reduction (%) 14 Days After Application, SORVU
# [9] = TRZSS (wheat, Triticum aestivum), crop, read-out: Visual Growth Reduction (%) 14 Days After Application, TRZSS
# [10] = ZEAMX: maize, corn (Zea mays), crop, read-out: Visual Growth Reduction (%) 14 Days After Application, ZEAMX
# [11] = ABUTH: velvetleaf (Abutilon theophrasti), read-out: Visual Growth Reduction (%) 14 Days After Application, ABUTH
# [12] = AMARE: redroot pigweed (Amaranthus retroflexus), read-out: Visual Growth Reduction (%) 14 Days After Application, AMARE
# [13] = BRSNN: oilseed-rape, canola (Brassica napus), read-out: Visual Growth Reduction (%) 14 Days After Application, BRSNN
# [14] = CHEAL: lambsquarters (Chenopodium album), read-out: Visual Growth Reduction (%) 14 Days After Application, CHEAL
# [15] = EPHHL: wild poinsettia (Euphorbia heterophylla), read-out: Visual Growth Reduction (%) 14 Days After Application, EPHHL
# [16] = HELAN: sunflower (Helianthus annuus), read-out: Visual Growth Reduction (%) 14 Days After Application, HELAN
# [17] = VIOTR: wild pansy (Viola tricolor), read-out: Visual Growth Reduction (%) 14 Days After Application, VIOTR
smiles,measurement,setting,value
N#Cc1ccc(-c2nc(C(=O)O)c(Cl)c(N)c2F)cc1F [Compound 156],pest or weed control at 70 g/ha,[1]; [3],60 to 74%
same,pest or weed control at 140 g/ha,[1]; [3],85 to 94%
same,pest or weed control at 70 g/ha,[1]; [4],60 to 74%
same,pest or weed control at 140 g/ha,[1]; [4],75 to 84%
same,pest or weed control at 70 g/ha,[1]; [5],75 to 84%
same,pest or weed control at 140 g/ha,[1]; [5],85 to 94%
same,pest or weed control at 70 g/ha,[1]; [6],0 to 29%
same,pest or weed control at 140 g/ha,[1]; [6],0 to 29%
same,pest or weed control at 70 g/ha,[1]; [7],85 to 94%
same,pest or weed control at 140 g/ha,[1]; [7],95 to 100%
same,pest or weed control at 70 g/ha,[1]; [8],60 to 74%
same,pest or weed control at 140 g/ha,[1]; [8],60 to 74%
same,pest or weed control at 70 g/ha,[1]; [9],45 to 59%
same,pest or weed control at 140 g/ha,[1]; [9],60 to 74%
same,pest or weed control at 70 g/ha,[1]; [10],75 to 84%
same,pest or weed control at 140 g/ha,[1]; [10],75 to 84%
same,pest or weed control at 70 g/ha,[2]; [11],60 to 74%
same,pest or weed control at 140 g/ha,[2]; [11],75 to 84%
same,pest or weed control at 70 g/ha,[2]; [12],95 to 100%
same,pest or weed control at 140 g/ha,[2]; [12],95 to 100%
same,pest or weed control at 70 g/ha,[2]; [13],75 to 84%
same,pest or weed control at 140 g/ha,[2]; [13],85 to 94%
same,pest or weed control at 70 g/ha,[2]; [14],95 to 100%
same,pest or weed control at 140 g/ha,[2]; [14],95 to 100%
same,pest or weed control at 70 g/ha,[2]; [15],85 to 94%
same,pest or weed control at 140 g/ha,[2]; [15],85 to 94%
same,pest or weed control at 70 g/ha,[2]; [16],95 to 100%
same,pest or weed control at 140 g/ha,[2]; [16],95 to 100%
same,pest or weed control at 70 g/ha,[2]; [17],60 to 74%
same,pest or weed control at 140 g/ha,[2]; [17],60 to 74%
